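Test compounds were applied to cells in 96-well plates for 48 hours at 5 doses. GI50 is the concentration that inhibits growth by half.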 Calls of active or inactive are those of the source. No stated cut-off is given here; in the data, active = GI50 up to about 1.1 µM and inactive = higher.
Experiments:
Assay in all cases: NCI anticancer screen, dose series, 48 h
K562 = tested on: K562
IGROV-1 = tested on: IGROV-1
CAKI-1 = tested on: CAKI-1
SK-OV-3 = tested on: SK-OV-3
HOP-92 = tested on: HOP-92
CCRF-CEM = tested on: CCRF-CEM
RXF 393 = tested on: RXF 393
SK-MEL-5 = tested on: SK-MEL-5
OVCAR-5 = tested on: OVCAR-5
HCT-116 = tested on: HCT-116
HL-60 = tested on: HL-60
T47D = tested on: T47D
NCI-H23 = tested on: NCI-H23
MDA-MB-435 = tested on: MDA-MB-435
SF-295 = tested on: SF-295
UACC-257 = tested on: UACC-257
U-251 = tested on: U-251
HOP-62 = tested on: HOP-62
NCI/ADR-RES = tested on: NCI/ADR-RES

Row | SMILES | GI50 (K562) | GI50 (IGROV-1) | GI50 (CAKI-1) | GI50 (SK-OV-3) | GI50 (HOP-92) | GI50 (CCRF-CEM) | GI50 (RXF 393) | GI50 (SK-MEL-5) | GI50 (OVCAR-5) | GI50 (HCT-116) | GI50 (HL-60) | GI50 (T47D) | GI50 (NCI-H23) | GI50 (MDA-MB-435) | GI50 (SF-295) | GI50 (UACC-257) | GI50 (U-251) | GI50 (HOP-62) | GI50 (NCI/ADR-RES)
1 | Cc1cc(O)c(O)c(Oc2cc(C)cc(O)c2O)c1 | 15.1 µM (inactive) | 12.4 µM (inactive) | 32 µM (inactive) | 36.8 µM (inactive) | 16.6 µM (inactive) | 2.37 µM (inactive) | 24.5 µM (inactive) | 33.9 µM (inactive) | 34.2 µM (inactive) | 14.5 µM (inactive) | 1.99 µM (inactive) | 26.7 µM (inactive) | 25.6 µM (inactive) | 12.7 µM (inactive) | 14.8 µM (inactive) | 6.07 µM (inactive) | 9.79 µM (inactive) | 67.6 µM (inactive) | –
2 | CC1=C(C(=O)OC(C)C)C(c2ccccc2C(F)(F)F)C(C(=O)OC(CO[N+](=O)[O-])CO[N+](=O)[O-])=C(C)N1 (stereo not given) | 2.69 µM (inactive) | 9.29 µM (inactive) | 9.98 µM (inactive) | 11.2 µM (inactive) | – | 2.72 µM (inactive) | 9.16 µM (inactive) | 5.52 µM (inactive) | 19.3 µM (inactive) | 3.76 µM (inactive) | 95.5 µM (inactive) | 3.83 µM (inactive) | 12.7 µM (inactive) | 6.28 µM (inactive) | 4.21 µM (inactive) | 6.34 µM (inactive) | 8.26 µM (inactive) | 11 µM (inactive) | 4.39 µM (inactive)
3 | COCCNC1CCC(=O)c2[nH]c3ccccc3c21 (stereo not given) | > 100 µM (inactive) | > 100 µM (inactive) | > 100 µM (inactive) | – | > 100 µM (inactive) | > 100 µM (inactive) | > 100 µM (inactive) | > 100 µM (inactive) | > 100 µM (inactive) | > 100 µM (inactive) | > 100 µM (inactive) | – | > 100 µM (inactive) | > 100 µM (inactive) | > 100 µM (inactive) | > 100 µM (inactive) | > 100 µM (inactive) | > 100 µM (inactive) | > 100 µM (inactive)
4 | Cc1c(Cc2ccccc2)n(C(C)OCCN(OC(=O)Oc2ccccc2)C(=O)Oc2ccccc2)c(=O)[nH]c1=O (stereo not given) | 26.9 µM (inactive) | 14.9 µM (inactive) | 18.7 µM (inactive) | 17.4 µM (inactive) | 13.5 µM (inactive) | 12.4 µM (inactive) | 15.8 µM (inactive) | 14.3 µM (inactive) | 17.2 µM (inactive) | 20.5 µM (inactive) | – | – | 16.3 µM (inactive) | 23.4 µM (inactive) | 16 µM (inactive) | 15 µM (inactive) | 19 µM (inactive) | 18.1 µM (inactive) | 16.9 µM (inactive)
5 | Cc1cccc(/C=N/NC(=S)Nc2ccc(Cl)cc2)n1 | 0.329 µM (active) | 0.811 µM (active) | 1.7 µM (inactive) | 1.8 µM (inactive) | 3 µM (inactive) | 0.695 µM (active) | – | 0.993 µM (active) | 15.7 µM (inactive) | 1.47 µM (inactive) | – | 0.611 µM (active) | 4.38 µM (inactive) | 0.205 µM (active) | 2.02 µM (inactive) | 3.13 µM (inactive) | 2.19 µM (inactive) | 1.08 µM (active) | 0.527 µM (active)
6 | O=C1c2ccccc2C(=O)c2c1ccc1c3ccccc3n(Cc3ccccc3)c21 | > 100 µM (inactive) | > 100 µM (inactive) | > 100 µM (inactive) | > 100 µM (inactive) | 26.2 µM (inactive) | > 100 µM (inactive) | – | > 100 µM (inactive) | > 100 µM (inactive) | > 100 µM (inactive) | > 100 µM (inactive) | – | – | – | > 100 µM (inactive) | – | – | > 100 µM (inactive) | –
7 | CCc1nc2ccc(C(F)(F)F)cc2[nH]c1=O | > 100 µM (inactive) | – | 80.7 µM (inactive) | > 100 µM (inactive) | > 100 µM (inactive) | > 100 µM (inactive) | > 100 µM (inactive) | > 100 µM (inactive) | > 100 µM (inactive) | > 100 µM (inactive) | > 100 µM (inactive) | – | > 100 µM (inactive) | > 100 µM (inactive) | > 100 µM (inactive) | > 100 µM (inactive) | > 100 µM (inactive) | > 100 µM (inactive) | > 100 µM (inactive)
8 | CCn1ncc2c1nc(-c1ccccc1)c[n+]2[O-] | > 100 µM (inactive) | > 100 µM (inactive) | – | – | – | > 100 µM (inactive) | – | – | > 100 µM (inactive) | 63.7 µM (inactive) | – | > 100 µM (inactive) | > 100 µM (inactive) | > 100 µM (inactive) | > 100 µM (inactive) | > 100 µM (inactive) | – | 2.22 µM (inactive) | > 100 µM (inactive)
9 | CCCCCCSc1nc(COC(=O)NC)c(COC(=O)NC)n1C | > 100 µM (inactive) | > 100 µM (inactive) | > 100 µM (inactive) | > 100 µM (inactive) | – | > 100 µM (inactive) | – | > 100 µM (inactive) | > 100 µM (inactive) | > 100 µM (inactive) | > 100 µM (inactive) | > 100 µM (inactive) | > 100 µM (inactive) | > 100 µM (inactive) | > 100 µM (inactive) | > 100 µM (inactive) | > 100 µM (inactive) | > 100 µM (inactive) | > 100 µM (inactive)

— ChEMBL document CHEMBL1201862, “PubChem BioAssay data set” (2004)
